# Experimental data as given in ChEMBL document CHEMBL1201862, “PubChem BioAssay data set” (2004).
#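 Compound exposure: 48 hours, 5 concentrations, 96-well plates. The concentration for 50% growth inhibition is given as GI50.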 Calls of active or inactive are those of the source. No stated cut-off is given here; in the data, active = GI50 up to about 1.1 µM and inactive = higher.
# Tests used:
# Experiment in all cases: NCI-60 cell line screen, 48 h
# CAKI-1 = test system: CAKI-1
# SR = test system: SR
# SW-620 = test system: SW-620
# HOP-62 = test system: HOP-62
# HCT-116 = test system: HCT-116
# NCI-H522 = test system: NCI-H522
# HL-60 = test system: HL-60
# K562 = test system: K562
# SNB-75 = test system: SNB-75
# U-251 = test system: U-251
# A549 = test system: A549
# OVCAR-5 = test system: OVCAR-5
# CCRF-CEM = test system: CCRF-CEM
# NCI-H460 = test system: NCI-H460
# SK-OV-3 = test system: SK-OV-3
SMILES,GI50 (CAKI-1),GI50 (SR),GI50 (SW-620),GI50 (HOP-62),GI50 (HCT-116),GI50 (NCI-H522),GI50 (HL-60),GI50 (K562),GI50 (SNB-75),GI50 (U-251),GI50 (A549),GI50 (OVCAR-5),GI50 (CCRF-CEM),GI50 (NCI-H460),GI50 (SK-OV-3)
CCCOc1ccc(/C=C/c2cc(OC)c(OC)c(OC)c2)cc1,0.209 µM (active),0.548 µM (active),0.218 µM (active),0.265 µM (active),0.552 µM (active),0.175 µM (active),0.155 µM (active),0.0733 µM (active),0.266 µM (active),0.384 µM (active),0.452 µM (active),28 µM (inactive),0.324 µM (active),0.439 µM (active),–
c1ccc2c(c1)nnn2CNc1ccc(N2CCCCC2)cc1,–,62.7 µM (inactive),> 100 µM (inactive),> 100 µM (inactive),> 100 µM (inactive),> 100 µM (inactive),45.3 µM (inactive),> 100 µM (inactive),> 100 µM (inactive),> 100 µM (inactive),> 100 µM (inactive),–,77.1 µM (inactive),> 100 µM (inactive),> 100 µM (inactive)
NCCCC(N/C=C1/N=C(c2ccccc2)OC1=O)C(=O)O (centres undefined),–,87.3 µM (inactive),> 100 µM (inactive),> 100 µM (inactive),40.3 µM (inactive),40.8 µM (inactive),63.4 µM (inactive),34.4 µM (inactive),> 100 µM (inactive),> 100 µM (inactive),> 100 µM (inactive),> 100 µM (inactive),37.8 µM (inactive),> 100 µM (inactive),> 100 µM (inactive)
CCOC(=O)C(=O)Nc1ccc([N+](=O)[O-])cc1C#N,> 100 µM (inactive),> 100 µM (inactive),> 100 µM (inactive),> 100 µM (inactive),> 100 µM (inactive),> 100 µM (inactive),> 100 µM (inactive),> 100 µM (inactive),–,> 100 µM (inactive),> 100 µM (inactive),> 100 µM (inactive),> 100 µM (inactive),> 100 µM (inactive),> 100 µM (inactive)
COC(=O)C1CC(C(=O)OC)c2nc3cc(C)ccc3nc21 (centres undefined),> 100 µM (inactive),–,> 100 µM (inactive),> 100 µM (inactive),–,> 100 µM (inactive),> 100 µM (inactive),> 100 µM (inactive),> 100 µM (inactive),> 100 µM (inactive),> 100 µM (inactive),> 100 µM (inactive),> 100 µM (inactive),> 100 µM (inactive),> 100 µM (inactive)
O=C(c1ccco1)N(C(=S)N1CCN(c2ccccc2)CC1)c1ccccc1,> 100 µM (inactive),72.4 µM (inactive),> 100 µM (inactive),> 100 µM (inactive),> 100 µM (inactive),> 100 µM (inactive),> 100 µM (inactive),> 100 µM (inactive),> 100 µM (inactive),> 100 µM (inactive),> 100 µM (inactive),> 100 µM (inactive),> 100 µM (inactive),> 100 µM (inactive),> 100 µM (inactive)
COC(=O)C1=Cc2cc(OC)c(OC)cc2[C@H](c2ccc(OC)c(OC)c2)C1C(=O)OC (some centres undefined),> 100 µM (inactive),> 100 µM (inactive),> 100 µM (inactive),> 100 µM (inactive),> 100 µM (inactive),–,> 100 µM (inactive),> 100 µM (inactive),> 100 µM (inactive),> 100 µM (inactive),> 100 µM (inactive),> 100 µM (inactive),> 100 µM (inactive),> 100 µM (inactive),> 100 µM (inactive)
COc1cc(C2(C)SCCCS2)cc(OC)c1OC,> 100 µM (inactive),> 100 µM (inactive),> 100 µM (inactive),> 100 µM (inactive),> 100 µM (inactive),> 100 µM (inactive),> 100 µM (inactive),> 100 µM (inactive),> 100 µM (inactive),> 100 µM (inactive),> 100 µM (inactive),> 100 µM (inactive),> 100 µM (inactive),> 100 µM (inactive),> 100 µM (inactive)
CC(=O)OCC1OC(n2c(=O)[nH]c(=O)c3nn[nH]c32)C(OC(C)=O)C(OC(C)=O)C1OC(C)=O (centres undefined),> 100 µM (inactive),> 100 µM (inactive),> 100 µM (inactive),> 100 µM (inactive),> 100 µM (inactive),> 100 µM (inactive),> 100 µM (inactive),> 100 µM (inactive),2.63 µM (inactive),> 100 µM (inactive),> 100 µM (inactive),> 100 µM (inactive),> 100 µM (inactive),> 100 µM (inactive),> 100 µM (inactive)
CN(C)NC(=O)/C(=C/c1ccc(Cl)cc1)NC(=O)c1ccccc1,> 100 µM (inactive),39.9 µM (inactive),–,> 100 µM (inactive),> 100 µM (inactive),40.7 µM (inactive),34.4 µM (inactive),85.3 µM (inactive),78 µM (inactive),> 100 µM (inactive),> 100 µM (inactive),> 100 µM (inactive),> 100 µM (inactive),69.3 µM (inactive),> 100 µM (inactive)
COc1cc2ccnc3c2c(c1OC)CC1CC(O)C(OC)CC31 (centres undefined),–,32 µM (inactive),33.7 µM (inactive),26.6 µM (inactive),38.7 µM (inactive),60.1 µM (inactive),28.6 µM (inactive),47.2 µM (inactive),> 100 µM (inactive),38 µM (inactive),61.8 µM (inactive),37.5 µM (inactive),78.3 µM (inactive),35.6 µM (inactive),> 100 µM (inactive)
CC1(C)O/C(=C\c2ccccc2)C(=O)/C(=C/c2ccccc2)O1,55.3 µM (inactive),20.5 µM (inactive),55.1 µM (inactive),74.8 µM (inactive),26.4 µM (inactive),3.4 µM (inactive),9.25 µM (inactive),27 µM (inactive),31.6 µM (inactive),28.4 µM (inactive),23.3 µM (inactive),14.7 µM (inactive),15.8 µM (inactive),59.6 µM (inactive),72.6 µM (inactive)
CNC(=O)NCNC(=O)NC,> 100 µM (inactive),–,> 100 µM (inactive),> 100 µM (inactive),> 100 µM (inactive),–,> 100 µM (inactive),> 100 µM (inactive),> 100 µM (inactive),> 100 µM (inactive),> 100 µM (inactive),> 100 µM (inactive),> 100 µM (inactive),> 100 µM (inactive),> 100 µM (inactive)
Cc1nc(N)nc(N)c1CCCCc1ccc(N)cc1,9.66 µM (inactive),1.28 µM (inactive),3.29 µM (inactive),5.11 µM (inactive),0.569 µM (active),4.26 µM (inactive),3.07 µM (inactive),0.321 µM (active),11.9 µM (inactive),3.03 µM (inactive),0.668 µM (active),4.46 µM (inactive),3.01 µM (inactive),0.959 µM (active),2.88 µM (inactive)
CCO[C@]12C[C@H](OC)[C@@]3(O)CC(C1[C@H]3OCc1ccccc1)C13C4C2[C@H](OC)C1[C@](COC)(CN4CC)[C@H](O)C[C@@H]3OC (some centres undefined),–,78.5 µM (inactive),> 100 µM (inactive),> 100 µM (inactive),> 100 µM (inactive),–,> 100 µM (inactive),> 100 µM (inactive),> 100 µM (inactive),> 100 µM (inactive),> 100 µM (inactive),> 100 µM (inactive),> 100 µM (inactive),> 100 µM (inactive),> 100 µM (inactive)
O=C(O)C12C3CCC(C3)C1(C(=O)O)C1CCC2C1 (centres undefined),> 100 µM (inactive),60.3 µM (inactive),18.4 µM (inactive),> 100 µM (inactive),45.3 µM (inactive),14.7 µM (inactive),39.6 µM (inactive),89.7 µM (inactive),> 100 µM (inactive),–,> 100 µM (inactive),> 100 µM (inactive),32.8 µM (inactive),81.3 µM (inactive),> 100 µM (inactive)
COC(=O)C(C(=O)C(=O)Nc1ccc(C)cc1C)c1nc2ccc([N+](=O)[O-])cc2nc1O (centres undefined),> 100 µM (inactive),> 100 µM (inactive),> 100 µM (inactive),> 100 µM (inactive),> 100 µM (inactive),60.3 µM (inactive),34.8 µM (inactive),78.7 µM (inactive),> 100 µM (inactive),> 100 µM (inactive),> 100 µM (inactive),> 100 µM (inactive),71.4 µM (inactive),> 100 µM (inactive),> 100 µM (inactive)
Oc1ccc(-c2n[nH]c(S)n2)cc1,> 100 µM (inactive),> 100 µM (inactive),> 100 µM (inactive),> 100 µM (inactive),> 100 µM (inactive),> 100 µM (inactive),> 100 µM (inactive),> 100 µM (inactive),87.5 µM (inactive),> 100 µM (inactive),> 100 µM (inactive),> 100 µM (inactive),> 100 µM (inactive),> 100 µM (inactive),> 100 µM (inactive)
Cc1ccc2[nH]c3c4c5ccccc5nc-4c[nH]c3c2c1,15.8 µM (inactive),–,13.7 µM (inactive),10 µM (inactive),17.1 µM (inactive),21.5 µM (inactive),16.6 µM (inactive),12.6 µM (inactive),14.9 µM (inactive),14.8 µM (inactive),17.2 µM (inactive),17.1 µM (inactive),15.3 µM (inactive),15.3 µM (inactive),12.6 µM (inactive)
